# Biological target: T1, PLK4 (Homo sapiens, UniProt O00444)
# T1 construct: expressed in transfected cells; host or cells: HEK293 T cells (ATCC CRL-3216)
# T1 sequence (O00444 1-970): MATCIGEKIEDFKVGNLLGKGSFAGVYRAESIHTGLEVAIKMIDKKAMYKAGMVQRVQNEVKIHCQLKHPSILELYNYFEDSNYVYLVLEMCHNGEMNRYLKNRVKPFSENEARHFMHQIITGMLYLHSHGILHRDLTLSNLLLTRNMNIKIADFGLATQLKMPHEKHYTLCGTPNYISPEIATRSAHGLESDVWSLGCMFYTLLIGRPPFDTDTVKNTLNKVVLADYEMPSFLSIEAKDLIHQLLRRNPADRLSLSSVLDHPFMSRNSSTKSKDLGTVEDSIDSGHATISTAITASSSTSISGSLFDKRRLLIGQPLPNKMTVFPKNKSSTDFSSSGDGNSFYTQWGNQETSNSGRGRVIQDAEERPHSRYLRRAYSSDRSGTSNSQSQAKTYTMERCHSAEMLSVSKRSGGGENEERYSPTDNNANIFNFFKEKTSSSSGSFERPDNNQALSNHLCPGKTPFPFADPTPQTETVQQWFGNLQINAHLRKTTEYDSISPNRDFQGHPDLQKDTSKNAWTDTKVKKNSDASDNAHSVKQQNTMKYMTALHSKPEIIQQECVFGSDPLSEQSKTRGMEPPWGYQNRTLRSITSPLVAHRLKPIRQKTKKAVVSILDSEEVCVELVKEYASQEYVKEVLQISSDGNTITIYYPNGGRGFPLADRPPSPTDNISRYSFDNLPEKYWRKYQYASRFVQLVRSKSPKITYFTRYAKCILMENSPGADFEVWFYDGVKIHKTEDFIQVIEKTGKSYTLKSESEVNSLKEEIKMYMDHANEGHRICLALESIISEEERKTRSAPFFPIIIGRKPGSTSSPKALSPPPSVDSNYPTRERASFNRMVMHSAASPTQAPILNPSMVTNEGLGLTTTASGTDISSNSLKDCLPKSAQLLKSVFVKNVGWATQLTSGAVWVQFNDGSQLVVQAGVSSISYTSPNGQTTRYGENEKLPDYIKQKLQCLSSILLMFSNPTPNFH
# Experiment: PLK4 NanoBRET target engagement assay
# Type: binding
# Details: HEK293 T cells transfected with PLK4 NanoLuc fusion vector; K-5 tracer; 2 hrs incubation
# Protocol: To determine the affinity of Compounds described herein in the PLK4 NanoBRET target engagement assay, HEK293 T cells (ATCC Product Number CRL-3216) are first transfected with the PLK4 NanoLuc fusion vector DNA and Transfection carrier DNA using the Fugene HD Transfection reagent in Opti-MEM No Phenol Red buffer. After an overnight incubation in a 37° C./5% CO2 incubator, the transfected HEK293 T cells are trypsinized, counted, and resuspended in Opti-MEM No Phenol Red buffer at a concentration of 200000 cells/mL. White 96-well plates are then plated with 85 μL of cells (17000 cells/well) to which 5 μL of the 20×K-5 tracer solution diluted in tracer dilution buffer is added. Finally, 10 μL of the 10× compounds are added and the plates and then incubated in a 37° C./5% CO2 incubator for 2 hrs. After the incubation, a 50 uL 3× solution of the substrate/inhibitor mix is added to the cells. The plate is then transferred in the Envision plate reader where the Acceptor emission (610 nm) and the Donor emission (450 nm) are measured.
# The IC50 of compounds is determined as follows: • 1. The ratio between the Acceptor emission (610 nm)/Donor emission (450 nm) is calculated. • 2. This ratio is then multiplied by 1000 to obtain the mBRET units (multiplying by 1000 is an arbitrary step that simply makes the data easier to interpret; it has no impact on the data set itself) • 3. The mBRET units are then used in Scigilian Analyze software (https://analyze.scigilian.io) to determine the IC50 value using a 4-parameter fit analysis.
row,Structure (SMILES),IC50
1,"COc1c(Nc2cc(C)[nH]n2)nc(Nc2ccc(S(C)(=O)=O)cc2F)nc1-c1cnn(C)c1 [Compound 1, N^2-(2-fluoro-4-(methylsulfonyl)phenyl)-5-methoxy-N^4-(5-methyl-1H-pyrazol-3-yl)-6-(1-methyl-1H-pyrazol-4-yl)pyrimidine-2,4-diamine]",220 nM
2,"CCN(c1nc(Nc2cc(C)[nH]n2)c(OC)c(-c2cnn(C)c2)n1)c1ccc(S(C)(=O)=O)cc1F [Compound 3, N^2-ethyl-N^2-(2-fluoro-4-(methylsulfonyl)phenyl)-5-methoxy-N^4-(5-methyl-1H-pyrazol-3-yl)-6-(1-methyl-1H-pyrazol-4-yl)pyrimidine-2,4-diamine]",68 nM
3,"COc1c(Nc2cc(C)[nH]n2)nc(N(Cc2ccc(F)cc2)c2ccc(S(C)(=O)=O)cc2F)nc1-c1cnn(C)c1 [Compound 4, N^2-(2-fluoro-4-(methylsulfonyl)phenyl)-N^2-(4-fluorobenzyl)-5-methoxy-N^4-(5-methyl-1H-pyrazol-3-yl)-6-(1-methyl-1H-pyrazol-4-yl)pyrimidine-2,4-diamine]",720 nM
4,"COc1c(Nc2cc(C)[nH]n2)nc(N2CCc3cc(S(C)(=O)=O)ccc32)nc1-c1cnn(C)c1 [Compound 5, 5-methoxy-N-(5-methyl-1H-pyrazol-3-yl)-6-(1-methyl-1H-pyrazol-4-yl)-2-(5-(methylsulfonyl)indolin-1-yl)pyrimidin-4-amine]",1100 nM
5,"COc1c(Nc2cc(C)[nH]n2)nc(N(C)c2ccc(S(=O)(=O)C3CC3)cc2F)nc1-c1cnn(C)c1 [Compound 7, N^2-(4-(cyclopropylsulfonyl)-2-fluorophenyl)-5-methoxy-N^2-methyl-N^4-(5-methyl-1H-pyrazol-3-yl)-6-(1-methyl-1H-pyrazol-4-yl)pyrimidine-2,4-diamine]",65 nM
6,"COc1c(Nc2cc(C)[nH]n2)nc(Oc2ccc(S(C)(=O)=O)cc2F)nc1-c1cnn(C)c1 [Compound 9, 2-(2-fluoro-4-(methylsulfonyl)phenoxy)-5-methoxy-N-(5-methyl-1H-pyrazol-3-yl)-6-(1-methyl-1H-pyrazol-4-yl)pyrimidin-4-amine]",400 nM
7,"Cc1cc(Nc2nc(Nc3ccc(S(C)(=O)=O)cc3F)nc(-c3cn(C)cn3)c2C2CC2)n[nH]1 [Compound 16, 5-cyclopropyl-N^2-(2-fluoro-4-(methylsulfonyl)phenyl)-6-(1-methyl-1H-imidazol-4-yl)-N^4-(5-methyl-1H-pyrazol-3-yl)pyrimidine-2,4-diamine]",200 nM
8,"COc1c(-c2cnn(C)c2)cc(N(C)c2ccc(S(C)(=O)=O)cc2F)nc1Nc1cc(C)[nH]n1 [Compound 19, N^6-(2-fluoro-4-(methylsulfonyl)phenyl)-3-methoxy-N^6-methyl-N^2-(5-methyl-1H-pyrazol-3-yl)-4-(1-methyl-1H-pyrazol-4-yl)pyridine-2,6-diamine]",56 nM
9,"Cc1cc(Nc2nc(N(C)c3ccc(S(C)(=O)=O)cc3F)cc(-c3cnn(C)c3)c2C2CC2)n[nH]1 [Compound 20, 3-cyclopropyl-N^6-(2-fluoro-4-(methylsulfonyl)phenyl)-N^6-methyl-N^2-(5-methyl-1H-pyrazol-3-yl)-4-(1-methyl-1H-pyrazol-4-yl)pyridine-2,6-diamine]",69 nM
10,"COc1c(-c2cnn(C)c2)cc(Sc2ccc(S(C)(=O)=O)cc2F)nc1Nc1cc(C)[nH]n1 [Compound 21, 6-((2-fluoro-4-(methylsulfonyl)phenyl)thio)-3-methoxy-N-(5-methyl-1H-pyrazol-3-yl)-4-(1-methyl-1H-pyrazol-4-yl)pyridin-2-amine]",53 nM
11,"COc1c(Nc2cc(C)[nH]n2)nc(Sc2ccc(S(C)(=O)=O)cc2F)c(C)c1-c1cnn(C)c1 [Compound 22, 6-((2-fluoro-4-(methylsulfonyl)phenyl)thio)-3-methoxy-5-methyl-N-(5-methyl-1H-pyrazol-3-yl)-4-(1-methyl-1H-pyrazol-4-yl)pyridin-2-amine]",96 nM
12,"COc1c(Nc2cc(C)[nH]n2)nc(Nc2ccc(S(C)(=O)=O)cc2F)c(C)c1-c1cnn(C)c1 [Compound 23, N^2-(2-fluoro-4-(methylsulfonyl)phenyl)-5-methoxy-3-methyl-N^6-(5-methyl-1H-pyrazol-3-yl)-4-(1-methyl-1H-pyrazol-4-yl)pyridine-2,6-diamine]",210 nM
13,"COc1c(Nc2cc(C)[nH]n2)nc(N(C)c2ccc(S(C)(=O)=O)cc2F)c(F)c1-c1cnn(C)c1 [Compound 24, 3-fluoro-N^2-(2-fluoro-4-(methylsulfonyl)phenyl)-5-methoxy-N^2-methyl-N^6-(5-methyl-1H-pyrazol-3-yl)-4-(1-methyl-1H-pyrazol-4-yl)pyridine-2,6-diamine]",1100 nM
14,COc1c(Nc2cc(C)[nH]n2)nc(Oc2c(F)cc(Br)cc2F)nc1-c1cnn(C)c1 [Compound 29],1300 nM
15,COc1c(Nc2cc(C)[nH]n2)nc(Oc2ccc(N(C)S(C)(=O)=O)cc2)nc1-c1cnn(C)c1 [Compound 31],620 nM
16,COc1c(Nc2cc(C)[nH]n2)nc(Oc2ccc(NS(C)(=O)=O)cc2)nc1-c1cnn(C)c1 [Compound 32],2800 nM

# Further lines, results first:
row,IC50,Structure (SMILES)
1,53 nM,"COc1c(Nc2cc(C)[nH]n2)nc(N(C)c2ccc(S(C)(=O)=O)cc2F)nc1-c1cnn(C)c1 [Compound 2, N^2-(2-fluoro-4-(methylsulfonyl)phenyl)-5-methoxy-N^2-methyl-N^4-(5-methyl-1H-pyrazol-3-yl)-6-(1-methyl-1H-pyrazol-4-yl)pyrimidine-2,4-diamine]"
2,49 nM,"COc1c(Nc2cc(C)[nH]n2)nc(N(C)c2ccc(S(C)(=O)=O)cc2F)nc1-c1ccn(C)n1 [Compound 6, N^2-(2-fluoro-4-(methylsulfonyl)phenyl)-5-methoxy-N^2-methyl-6-(1-methyl-1H-pyrazol-3-yl)-N^4-(5-methyl-1H-pyrazol-3-yl)pyrimidine-2,4-diamine]"
3,6 nM,"COc1c(Nc2cc(C)[nH]n2)nc(N(C)c2c(F)cc(S(C)(=O)=O)cc2F)nc1-c1cnn(C)c1 [Compound 8, N^2-(2,6-difluoro-4-(methylsulfonyl)phenyl)-5-methoxy-N^2-methyl-N^4-(5-methyl-1H-pyrazol-3-yl)-6-(1-methyl-1H-pyrazol-4-yl)pyrimidine-2,4-diamine]"
4,16 nM,"Cc1cc(Nc2nc(N(C)c3ccc(S(C)(=O)=O)cc3F)nc(-c3ccn(C)n3)c2C2CC2)n[nH]1 [Compound 12, 5-cyclopropyl-N^2-(2-fluoro-4-(methylsulfonyl)phenyl)-N^2-methyl-6-(1-methyl-1H-pyrazol-3-yl)-N^4-(5-methyl-1H-pyrazol-3-yl)pyrimidine-2,4-diamine]"
5,5 nM,"Cc1cc(Nc2nc(N(C)c3c(F)cc(S(C)(=O)=O)cc3F)nc(-c3ccn(C)n3)c2C2CC2)n[nH]1 [Compound 13, 5-cyclopropyl-N^2-(2,6-difluoro-4-(methylsulfonyl)phenyl)-N^2-methyl-6-(1-methyl-1H-pyrazol-3-yl)-N^4-(5-methyl-1H-pyrazol-3-yl)pyrimidine-2,4-diamine]"
6,20 nM,"Cc1cc(Nc2nc(N(C)c3ccc(S(C)(=O)=O)cc3F)nc(-c3cn(C)cn3)c2C2CC2)n[nH]1 [Compound 17, 5-cyclopropyl-N^2-(2-fluoro-4-(methylsulfonyl)phenyl)-N^2-methyl-6-(1-methyl-1H-imidazol-4-yl)-N^4-(5-methyl-1H-pyrazol-3-yl)pyrimidine-2,4-diamine]"
7,5 nM,[2H]C([2H])([2H])N(C([2H])([2H])[2H])S(=O)(=O)c1ccc(N(C)c2nc(Nc3cc(C)[nH]n3)c(C3CC3)c(-c3cnn(C)c3)n2)c(F)c1 [Compound 26]

# Source: US20250177396A1, “POLO-LIKE KINASE 4 (PLK4) INHIBITORS, PHARMACEUTICAL COMPOSITIONS, METHODS OF PREPARATION AND USES THEREOF” (Repare Therapeutics Inc., priority 2022, published 2025)
